The text below walks through data of paper PMC8072719, “Synthesis and Antiproliferative Activity of Triazoles Based on 2-Azabicycloalkanes” (Materials, 2021).

Data set [1] has as its system MIA PaCa-2. Nature of the data set: Growth inhibition assay (SRB assay), pancreatic tumor cell line MIA PaCa-2. In kind it is cell-based, human. Conditions: Homo sapiens, mean ± SD. The procedure: (§1) Three human cancer cell lines were used to evaluate the antiproliferative activity of the obtained compounds: melanoma cell line Hs294T, pancreatic tumor cell line MIA PaCa-2, and lung tumor cell line NCI-H1581. The normal mouse fibroblasts cell line (BALB/3T3 clone A31) was selected as reference. All these lines were purchased from the ATCC (American Type Culture Collection, Rockville, MD, USA). NCI-H1581 cells were grown in RPMI 1640 with GlutaMax medium (Gibco, Thermo Fisher Scientific, Leicestershire, UK) with 5% fetal bovine serum (FBS; HyClone, GE Healthcare, Logan, UT, USA). Hs294T and BALB/3T3 cells were grown in Dulbecco’s Modified Eagle Medium (DMEM; Gibco, Thermo Fisher Scientific, Leicestershire, UK) supplemented with 2 mM L-glutamine and 10% FBS (HyClone, GE Healthcare, Logan, UT, USA). MIA PaCa-2 cells were grown in DMEM (Gibco, Thermo Fisher Scientific, Leicestershire, UK) supplemented with 2 mM L-glutamine, 2.5% Horse Serum (Gibco, Thermo Fisher Scientific, Leicestershire, UK), and 10% FBS (HyClone, GE Healthcare, Logan, UT, USA). All culture media were supplemented with antibiotics: 100 U/mL penicillin (Polfa Tarchomin SA, Warsaw, Poland) and 100 µg/mL streptomycin (Sigma-Aldrich Chemie GmbH, Steinheim, Germany); cells were grown at 37 °C in a humid atmosphere with 5% CO2.
(§2) Twenty-four hours prior to the addition of the tested compounds, 2000 cells per well of Balb/3T3, MIA PaCa-2, and Hs294T cell lines and 2500 cells of NCI-H1581 cell line were seeded in 384-well plates (Greiner Bio-One, Kremsmünster, Austria) in an appropriate medium. The studied compounds were added to the cells at 8 different concentrations in a series of dilutions from 100 to 0.00001 µg/mL for 72 h. Cisplatin was applied as a reference compound (Teva Pharmaceuticals, Warsaw, Poland). DMSO (Sigma-Aldrich Chemie GmbH, Steinheim, Germany) was used as solvent control. The DMSO concentrations corresponded to the solvent concentrations in the tested compound solutions. Then, 30 µL per well of ice-cold 50% TCA (trichloroacetic acid, Avantor, Gliwice, Poland) was added to the cells. After one hour of incubation at room temperature (RT) cells were washed five times with water and stained with 0.4% SRB (sulforhodamine B, Sigma-Aldrich Chemie GmbH, Steinheim, Germany). Twenty-five microliters per well of 0.4% solution of SRB in 1% acetic acid (Avantor, Gliwice, Poland) was applied. After 0.5 h of incubation at RT, the unbound dye was washed out with 1% acetic acid. The bound dye in each well was dissolved in 70 µl of 10 mM TRIS (Tris base, Sigma-Aldrich, Chemie GmbH, Steinheim, Germany). A microplate reader (BioTek Synergy H4, Swindon, UK) with Gen5 software was used to read the absorbance at 540 nm. The results are presented as mean IC50 values (concentration of the compound that inhibits cell proliferation by 50%) ± standard deviation. Half-maximal inhibitory concentration (IC50) values were calculated using the Prolab-3 system based on Cheburator 0.4 [22]. Each experiment was performed in triplicate, and three independent repetitions were made for each experiment. Raw data and IC50 values were placed in the supplementary materials.

Data set [2] relates to BALB/3T3 clone A31. The data set can be described thus: Growth inhibition assay (SRB assay), normal fibroblasts BALB/3T3 clone A31. In kind it is cell-based, mouse. Conditions: Mus musculus, BALB/3T3 clone A31, 72 h, mean ± SD. How it is done:
as §1, §2

Data set [3] relates to Hs294T. Nature of the data set: Growth inhibition assay (SRB assay), melanoma cell line Hs294T. In kind it is cell-based, human. As to conditions: Homo sapiens, Hs 294T, 72 h, mean ± SD. How it is done:
as §1, §2
For orientation: Sulforhodamine B stains cellular protein and so reports cell mass.

Data set [4] concerns NCI-H1581. Nature of the data set: Growth inhibition assay (SRB assay), lung tumor cell line NCI-H1581. In kind it is cell-based, human. As to conditions: for IC50: 72 h, SRB, mean ± SD. The procedure: as §1, §2
A short description of data set [5]: Solvability in DMSO (table footnote). In kind it is physicochemical. Also on record: key to solvability in dimethyl sulfoxide (DMSO): **: poor or no solvability in dimethyl sulfoxide (DMSO); key to solvability in DMSO: [b]: poor or no solvability in DMSO. As to conditions: for solvability in DMSO: supplement.
[6] abbreviates: MIA PaCa-2, 72 h, read-out: IC50 MIA PaCa-2.
The mark [7] stands for this setting: MIA PaCa-2, supplement, 72 h, read-out: IC50 MIA PaCa-2 (non-rounded data).
[8] abbreviates: MIA PaCa-2, supplement, 72 h, read-out: IC50 MIA PaCa-2 (raw data).
[9] abbreviates: normal cell line, read-out: IC50 BALB3T3.
Setting [10] is: supplement, read-out: IC50 BALB3T3 (non-rounded data).
Setting [11] is: supplement, read-out: IC50 BALB3T3 (raw data).
Setting [12] is: supplement, read-out: IC50 Hs294T (raw data).
Setting [13] is: Homo sapiens, NCI-H1581, 72 h, read-out: IC50 NCI-H1581.
[14] abbreviates: Homo sapiens, NCI-H1581, 72 h, supplement, read-out: IC50 NCI-H1581 (raw data).

Usually IC50 stands for the midpoint of a concentration-inhibition curve.

Molecules are shown by their SMILES. Like-named read-outs stand apart in the source and are kept apart here.

In the case of `C[C@@H](c1ccccc1)N1C[C@@H](n2cc(-c3ccc(-c4cn([C@@H]5CN([C@@H](C)c6ccccc6)[C@H]6CC[C@@H]5C6)nn4)cc3)nn2)[C@@H]2CC[C@H]1C2` [Compound 14, 1,4-Bis-(1-((1S,4S,5R)-2-((S)-1-phenylethyl)-2-azabicyclo[3.2.1]octan-4-yl)-1H-1,2,3-triazol-4-yl) benzene], the half-maximal inhibitory concentration (IC50) in data set [1] (setting [6]), in data set [1] (setting [7]), in data set [1] (setting [8]), in data set [2] (setting [9]), in data set [2] (setting [10]) and in data set [2] (setting [11]) was more than 100 µM throughout. Further, the concentration for half-maximal inhibition (IC50) in data set [3] (read-out: IC50 Hs294T) was determined as 77.3 ± 9.5 µM; in data set [3] (setting [12]), 49.4 ± 6.07 µg/mL; in data set [4] (setting [13]) it was 20.9 ± 15.2 µM; in data set [4] (setting [14]), 13.4 ± 9.71 µg/mL. Also, in data set [5], the “solvability in dimethyl sulfoxide (DMSO)” value was 14 **. The “solvability in DMSO” value in data set [5] is “[b]”.
Turning to `C[C@@H](c1ccccc1)N1C[C@H](n2cc(-c3ccc(-c4cn([C@H]5CN([C@@H](C)c6ccccc6)[C@H]6CC[C@@H]5C6)nn4)cc3)nn2)[C@@H]2CC[C@H]1C2` [Compound 15, 1,4-Bis-(1-((1S,4R,5R)-2-((S)-1-phenylethyl)-2-azabicyclo[3.2.1]octan-4-yl)-1H-1,2,3-triazol-4-yl) benzene], the half-maximal inhibitory concentration (IC50) in data set [1] (setting [6]) stood at 111 ± 9.55 µM; in data set [1] (setting [8]) it was 71.2 ± 6.1 µg/mL; in data set [2] (setting [9]) it was 59.5 ± 11.7 µM; in data set [2] (setting [11]), 38 ± 7.48 µg/mL; in data set [3] (read-out: IC50 Hs294T) it was 58.8 ± 4.07 µM; in data set [3] (setting [12]), 37.6 ± 2.6 µg/mL. Besides, the IC50 in data set [4] (setting [13]) came to 6.87 ± 1.46 µM; in data set [4] (setting [14]), 4.39 ± 0.93 µg/mL. Besides, in data set [4] (SI = IC50 for normal cell line BALB/3T3 / IC50 for NCI-H1581), the “SI (Selectivity Index)” value is listed as 9. Also, in data set [5], the “solvability in dimethyl sulfoxide (DMSO)” value was 15 **. Moreover, the “solvability in DMSO” value in data set [5] was “[b]”.
For the compound `C[C@@H](c1ccccc1)N1C[C@@H](n2cc(-c3cccc(-c4cn([C@@H]5CN([C@@H](C)c6ccccc6)[C@H]6CC[C@@H]5C6)nn4)c3)nn2)[C@@H]2CC[C@H]1C2` [Compound 16, 1,3-Bis-(1-((1S,4S,5R)-2-((S)-1-phenylethyl)-2-azabicyclo[3.2.1]octan-4-yl)-1H-1,2,3-triazol-4-yl) benzene], the IC50 in data set [1] (setting [6]), in data set [1] (setting [7]), in data set [1] (setting [8]), in data set [2] (setting [9]), in data set [2] (setting [10]) and in data set [2] (setting [11]) was more than 100 µM throughout. Also, the IC50 in data set [3] (read-out: IC50 Hs294T) was more than 100 µM; in data set [3] (supplement, read-out: IC50 Hs294T (non-rounded data)), more than 100 µM; in data set [3] (setting [12]) it was more than 100 µM; in data set [4] (setting [13]), 53.9 ± 5.07 µM; in data set [4] (setting [14]), 34.5 ± 3.24 µg/mL. For the same compound, in data set [5], the “solvability in dimethyl sulfoxide (DMSO)” value is listed as 16 **. In addition, the “solvability in DMSO” value in data set [5] is “[b]”.
On to `CC(c1ccccc1)N1C2CCC(C2)C1c1cn(CC2CCCN2C(=O)OC(C)(C)C)nn1` (centres unmarked) [Compound 21], for which the IC50 is 90.28 ± 0.69 µM in data set [1] (setting [6]); 40.77 ± 0.31 µg/mL in data set [1] (setting [8]); more than 100 µM in data set [2] (setting [9]); 48.8 ± 10.1 µg/mL in data set [2] (setting [11]); 92.6 ± 22 µM in data set [3] (read-out: IC50 Hs294T); 41.8 ± 9.92 µg/mL in data set [3] (setting [12]). The IC50 in data set [4] (read-out: IC50 NCI-H1581) turned out to be 77.6 ± 8.68 µM; in data set [4] (setting [13]), 77.6 µM; in data set [4] (setting [14]) it was 35 ± 3.92 µg/mL. In addition, the “solvability in dimethyl sulfoxide (DMSO)” value in data set [5] is listed as 21 **. Also, the “solvability in DMSO” value in data set [5] was “[b]”.
